In patent US20240059691A1 (KALVISTA PHARMACEUTICALS LIMITED, priority 2020, published 2024) one finds IC50 data, which are given here for 25 molecules.

As a reminder, the IC50 is the concentration at which inhibition is half-maximal.

Each structure is given as a SMILES string.

Sequence of Plasma Kallikrein (P03952 391-638): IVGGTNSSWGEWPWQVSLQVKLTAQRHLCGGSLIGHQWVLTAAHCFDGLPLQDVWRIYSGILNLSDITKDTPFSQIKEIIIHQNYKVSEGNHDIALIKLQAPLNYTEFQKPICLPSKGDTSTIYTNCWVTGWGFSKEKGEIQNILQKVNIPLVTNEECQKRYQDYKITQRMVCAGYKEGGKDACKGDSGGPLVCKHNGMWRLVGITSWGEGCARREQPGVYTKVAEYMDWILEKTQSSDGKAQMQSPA
Sequence of Plasma Kallikrein (P03952 20-390 partner): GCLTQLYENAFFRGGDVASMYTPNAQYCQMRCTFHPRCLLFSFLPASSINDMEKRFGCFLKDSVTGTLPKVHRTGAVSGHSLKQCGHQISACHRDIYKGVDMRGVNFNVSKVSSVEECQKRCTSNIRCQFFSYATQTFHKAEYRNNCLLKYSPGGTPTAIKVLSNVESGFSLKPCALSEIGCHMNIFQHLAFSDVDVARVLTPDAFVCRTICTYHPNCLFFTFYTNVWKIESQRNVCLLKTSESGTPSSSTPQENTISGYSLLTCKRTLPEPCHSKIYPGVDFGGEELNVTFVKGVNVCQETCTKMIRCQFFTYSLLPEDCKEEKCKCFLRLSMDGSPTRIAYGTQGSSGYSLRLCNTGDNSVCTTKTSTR

For this assay, the target named is Plasma Kallikrein (Homo sapiens (Human), UniProt P03952). Nature of the assay: Determination of related protease inhibition: Plasma Kallikrein (fluorogenic substrate at Km). Type of assay: biochemical. Conditions: 25° C., read-out: IC50 (human PKal). The method, then:
Determination of Related Protease Inhibition
In vitro inhibition of related proteases was determined using an ([…] assay based on standard literature methods (see e.g. Shori et al., Biochem. Pharmacol., 1992, 43, 1209; Bouckaert et al., European Journal of Medicinal Chemistry 110 (2016) 181). Human serine protease enzymes Plasma Kallikrein, KLK1, FXa, Plasmin, Thrombin and Trypsin were assayed for enzymatic activity using an appropriate fluorogenic substrate at Km concentration, FXIa at fixed substrate concentration of 100 μM, and various concentrations of the test compound. Protease activity was measured by monitoring the accumulation of liberated fluorescence from the substrate over […]. The linear rate of fluorescence increase per minute was expressed as percentage (%) activity. IC50 values were calculated as the concentration of inhibitor giving 50% inhibition of the uninhibited enzyme activity (100%).
Take `COc1ccc2ncc(NCc3ccc(NCC4CCN(C)CC4)nc3)cc2c1` [Example 1177, 6-methoxy-N-((6-(((1-methylpiperidin-4-yl)methyl)amino)pyridin-3-yl)methyl)quinolin-3-amine]: the IC50 was more than 100 µM.

For `Cc1nnc(-c2ccc(NCc3ccnc(OCC4CCN(C)CC4)c3)cc2)o1` [Example 4457, 4-(5-methyl-1,3,4-oxadiazol-2-yl)-N-((2-((1-methylpiperidin-4-yl)methoxy)pyridin-4-yl)methyl)aniline], the IC50 was more than 100 µM.

With `CN1CCC(CNc2ccc(CNc3ccc4cncc(N5CCC(F)(F)C5)c4c3)cn2)CC1` [Example 1260, 4-(3,3-difluoropyrrolidin-1-yl)-N-((6-(((1-methylpiperidin-4-yl)methyl)amino)pyridin-3-yl)methyl)isoquinolin-6-amine], the IC50 is more than 40 µM.

Turning to `Cc1cc(NCc2ccc(NCC3CCN(C)CC3)nc2)c2cc[nH]c2c1` [Example 1215, 6-methyl-N-((6-(((1-methylpiperidin-4-yl)methyl)amino)pyridin-3-yl)methyl)-1H-indol-4-amine], the IC50 is more than 100 µM.

With `CN1CCC(CNc2ccc(CNc3ccnc4c3ccn4C)cn2)CC1` [Example 1225, 1-methyl-N-((6-(((1-methylpiperidin-4-yl)methyl)amino)pyridin-3-yl)methyl)-1H-pyrrolo[2,3-b]pyridin-4-amine], the half-maximal inhibitory concentration (IC50) was more than 100 µM.

As for `CN1CCC(CNc2ccc(CNc3ccnc4[nH]cc(C#N)c34)cn2)CC1` [Example 1221, 4-(((6-(((1-methylpiperidin-4-yl)methyl)amino)pyridin-3-yl)methyl)amino)-1H-pyrrolo[2,3-b]pyridine-3-carbonitrile], the IC50 is more than 100 µM.

As for `CN1CCC(CNc2ccc(CNc3cc(C(=O)O)c4cnccc4c3)cn2)CC1` [Example 1203, 6-(((6-(((1-methylpiperidin-4-yl)methyl)amino)pyridin-3-yl)methyl)amino)isoquinoline-8-carboxylic acid], the IC50 was more than 100 µM.

For `CN1CCC(CNc2ccc(CNc3cc(C(N)=O)nc4[nH]ccc34)cn2)CC1` [Example 1264, 4-(((6-(((1-methylpiperidin-4-yl)methyl)amino)pyridin-3-yl)methyl)amino)-1H-pyrrolo[2,3-b]pyridine-6-carboxamide], the IC50 was more than 40 µM.

Turning to `CN1CCC(CNc2ccc(CNc3cc(C#N)nc4[nH]ccc34)cn2)CC1` [Example 1261, 4-(((6-(((1-methylpiperidin-4-yl)methyl)amino)pyridin-3-yl)methyl)amino)-1H-pyrrolo[2,3-b]pyridine-6-carbonitrile], the half-inhibitory concentration (IC50) was more than 40 µM.

Consider `CNC(=O)c1cc(NCc2ccc(NCC3CCN(C)CC3)nc2)cc2c(Cl)c[nH]c12` [Example 1220, 3-chloro-N-methyl-5-(((6-(((1-methylpiperidin-4-yl)methyl)amino)pyridin-3-yl)methyl)amino)-1H-indole-7-carboxamide], for which the IC50 was more than 40 µM.

In the case of `CN1CCC(CNc2ccc(CNc3cccn4ccnc34)cn2)CC1` [Example 1190, N-((6-(((1-methylpiperidin-4-yl)methyl)amino)pyridin-3-yl)methyl)imidazo[1,2-a]pyridin-8-amine], the IC50 is more than 100 µM.

As for `CN1CCC(CNc2ccc(CNc3cnn(-c4cccc(Cl)c4)c3)cn2)CC1` [Example 1116, 5-(((1-(3-chlorophenyl)-1H-pyrazol-4-yl)amino)methyl)-N-((1-methylpiperidin-4-yl)methyl)pyridin-2-amine], the IC50 is more than 100 µM.

In the case of `CN1CCC(CNc2ccc(CNc3ccnc4[nH]c(C(=O)O)cc34)cn2)CC1` [Example 1253, 4-(((6-(((1-methylpiperidin-4-yl)methyl)amino)pyridin-3-yl)methyl)amino)-1H-pyrrolo [2,3-b]pyridine-2-carboxylic acid], the IC50 is more than 40 µM.

Regarding `Cc1ncc(NCc2ccc(NCC3CCN(C)CC3)nc2)c2cc[nH]c12` [Example 1244, 7-methyl-N-((6-(((1-methylpiperidin-4-yl)methyl)amino)pyridin-3-yl)methyl)-1H-pyrrolo[2,3-c]pyridin-4-amine], the IC50 is more than 100 µM.

For `COc1ccc2cc(NCc3ccc(NCC4CCN(C)CC4)nc3)ccc2c1` [Example 1180, 5-(((6-methoxynaphthalen-2-yl)amino)methyl)-N-((1-methylpiperidin-4-yl)methyl)pyridin-2-amine], the IC50 was more than 100 µM.

As for `CNC(=O)c1cc(NCc2ccc(NCC3CCN(C)CC3)nc2)cc2ccncc12` [Example 1210, N-methyl-6-(((6-(((1-methylpiperidin-4-yl)methyl)amino)pyridin-3-yl)methyl)amino)isoquinoline-8-carboxamide], the IC50 is more than 100 µM.

Regarding `COC(=O)c1cc2c(NCc3ccc(NCC4CCN(C)CC4)nc3)ccnc2[nH]1` [Example 1247, methyl 4-(((6-(((1-methylpiperidin-4-yl)methyl)amino)pyridin-3-yl)methyl)amino)-1H-pyrrolo[2,3-b]pyridine-2-carboxylate], the IC50 is more than 100 µM.

On to `CN1CCC(CNc2ccc(CNc3cnc4[nH]cc(C#N)c4c3)cn2)CC1` [Example 1212, 5-(((6-(((1-methylpiperidin-4-yl)methyl)amino)pyridin-3-yl)methyl)amino)-1H-pyrrolo[2,3-b]pyridine-3-carbonitrile], for which the IC50 is more than 100 µM.

Regarding `CN1CCC(CNc2ccc(CNc3ccc(N(C)C)nn3)cn2)CC1` [Example 1186, N3,N3-dimethyl-N6-((6-(((1-methylpiperidin-4-yl)methyl)amino)pyridin-3-yl)methyl)pyridazine-3,6-diamine], the IC50 is more than 100 µM.

On to `CN1CCC(CNc2ccc(CNc3cc(C(=O)O)c4[nH]cc(Cl)c4c3)cn2)CC1` [Example 1204, 3-chloro-5-(((6-(((1-methylpiperidin-4-yl)methyl)amino)pyridin-3-yl)methyl)amino)-1H-indole-7-carboxylic acid], for which the IC50 is more than 100 µM.

With `CN1CCC(CNc2ccc(CNc3cnc4cccnn34)cn2)CC1` [Example 1187, N-((6-(((1-methylpiperidin-4-yl)methyl)amino)pyridin-3-yl)methyl)imidazo[1,2-b]pyridazin-3-amine], the IC50 was more than 100 µM.

With `CN1CCC(CNc2ccc(CNc3ccnc4[nH]ncc34)cn2)CC1` [Example 1218, N-((6-(((1-methylpiperidin-4-yl)methyl)amino)pyridin-3-yl)methyl)-1H-pyrazolo[3,4-b]pyridin-4-amine], the half-maximal inhibitory concentration (IC50) is more than 100 µM.

Consider `Nc1ncc(Cl)c2cc(NCc3ccc(N4CCn5nccc5C4)nc3)ccc12` [Example 1157, 4-chloro-N6-((6-(6,7-dihydropyrazolo[1,5-a]pyrazin-5(4H)-yl)pyridin-3-yl)methyl)isoquinoline-1,6-diamine], for which the IC50 is more than 40 µM.

On to `COc1cccc2ccc(NCc3ccc(NCC4CCN(C)CC4)nc3)cc12` [Example 1178, 5-(((8-methoxynaphthalen-2-yl)amino)methyl)-N-((1-methylpiperidin-4-yl)methyl)pyridin-2-amine], for which the IC50 is more than 100 µM.

`CN1CCC(CNc2ccc(CNc3cc4c(=O)[nH]ccn4c3)cn2)CC1` [Example 1199, 7-(((6-(((1-methylpiperidin-4-yl)methyl)amino)pyridin-3-yl)methyl)amino)pyrrolo[1,2-a]pyrazin-1(2H)-one]: the IC50 was more than 100 µM.
